The values below come from ChEMBL document CHEMBL1938266, “A three-step protocol for lead optimization: quick identification of key conformational features and functional groups in the SAR studies of non-ATP competitive MK2 (MAPKAPK2) inhibitors” (Bioorg Med Chem Lett, 2012).

The target of assay [1] is T1, MAP kinase-activated protein kinase 2 (Homo sapiens, UniProt P49137). Description: Inhibition of human MK2.
For assay [2], the system named is THP-1. Description: Inhibition of LPS-stimulated TNFalpha production in human THP1 cells by ELISA. The class given is functional, cell-based. For orientation: An ELISA detects its analyte on a solid surface through an enzyme-linked reagent.
Assay [3] deals with T1, MAP kinase-activated protein kinase 2. Description: Inhibition of MK2-mediated HSP27 phosphorylation by cell-based assay.

T1 sequence (P49137 whole entry): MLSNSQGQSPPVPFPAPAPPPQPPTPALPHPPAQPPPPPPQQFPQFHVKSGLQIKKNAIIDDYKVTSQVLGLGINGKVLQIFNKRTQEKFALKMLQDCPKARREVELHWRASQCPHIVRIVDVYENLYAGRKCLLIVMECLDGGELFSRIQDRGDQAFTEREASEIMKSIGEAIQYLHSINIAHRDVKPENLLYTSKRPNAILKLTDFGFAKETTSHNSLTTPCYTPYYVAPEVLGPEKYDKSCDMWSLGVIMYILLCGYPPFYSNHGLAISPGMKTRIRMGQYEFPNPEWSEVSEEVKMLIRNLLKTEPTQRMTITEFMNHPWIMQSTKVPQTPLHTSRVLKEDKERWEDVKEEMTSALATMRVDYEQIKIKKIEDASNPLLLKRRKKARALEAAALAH

Usually IC50 stands for the concentration that inhibits the measured activity by half. Regarding `Cc1cccc(C)c1-c1ccccc1CN(C(=O)c1ccc(-c2ccc(C#N)cc2)o1)c1ccc(N2CCNCC2)cc1`, the IC50 in assay [1] (read-out: IC50) amounted to 258 nM.

Usually EC50 stands for the midpoint of the concentration-response curve. A high value points to a less potent agent. Turning to `O=C(c1ccc(-c2ccc(Cl)cc2)o1)N(Cc1ccccn1)c1ccc(N2CCNCC2)cc1`, the IC50 in assay [1] (read-out: IC50) was 110 nM. Moreover, the results for the EC50 in assay [2] and in assay [3] were 5000 nM and 350 nM, respectively.

For `N#Cc1ccc(-c2ccc(C(=O)N(Cc3ccccn3)c3ccc(N4CCNCC4)cc3)o2)cc1`, in assay [1] (read-out: IC50), the IC50 was 115 nM.

Consider `O=C(c1ccc(-c2ccc(Cl)cc2)o1)N(Cc1ccccn1)C1CCC(N2CCNCC2)CC1` (centres undefined), for which the IC50 in assay [1] (read-out: IC50) stood at 4740 nM.

For `CN1CCN(CCCN(Cc2ccccn2)C(=O)c2ccc(-c3ccc(C#N)cc3)o2)CC1`, the IC50 in assay [1] (read-out: IC50) was 10000 nM.

For the molecule `N#Cc1ccc(-c2ccc(C(=O)N(Cc3ccccn3)C3CCNCC3)o2)cc1`, in assay [1] (read-out: IC50), the IC50 stood at 10000 nM.

Take `Cc1cccc(CN(C(=O)c2ccc(-c3ccc(C#N)cc3)o2)c2ccc(N3CCNCC3)cc2)n1`: in assay [1] (read-out: IC50), the IC50 came to 79 nM.

`Cc1cccc(CN(C(=O)c2ccc(-c3ccc(Cl)cc3)o2)c2cccc(N3CCNCC3)c2)n1`: the IC50 result in assay [1] was “Not Active”.

Turning to `Cc1cccc(CN(C(=O)c2ccc(-c3ccc(Cl)cc3)o2)c2ccccc2N2CCNCC2)n1`, the 50% inhibitory concentration (IC50) entry in assay [1] is “Not Active”.

Consider `N#Cc1ccc(-c2ccc(C(=O)N(Cc3ccc(-c4ccccc4)cc3)c3ccc(N4CCNCC4)cc3)o2)cc1`, for which the IC50 in assay [1] (read-out: IC50) came out at 41 nM. The molecule further had a half-maximal effective concentration (EC50) in assay [2] of 6690 nM.

For `N#Cc1ccc(-c2ccc(C(=O)N(Cc3cccc(-c4ccccc4)c3)c3ccc(N4CCNCC4)cc3)o2)cc1`, the IC50 in assay [1] (read-out: IC50) worked out at 70 nM. The EC50 in assay [2] stood at 28100 nM.

As for `N#Cc1ccc(-c2ccc(C(=O)N(Cc3ccccc3-c3ccccc3)c3ccc(N4CCNCC4)cc3)o2)cc1`, the IC50 in assay [1] (read-out: IC50) was 9 nM. The same molecule yielded an EC50 in assay [2] of 3460 nM.

In the case of `N#Cc1ccc(-c2ccc(C(=O)N(Cc3ccc(-c4ccccc4F)cc3)c3ccc(N4CCNCC4)cc3)o2)cc1`, the IC50 in assay [1] (read-out: IC50) was 1920 nM.

As to `N#Cc1ccc(-c2ccc(C(=O)N(Cc3cccc(-c4ccccc4F)c3)c3ccc(N4CCNCC4)cc3)o2)cc1`, the IC50 in assay [1] (read-out: IC50) turned out to be 1450 nM.

Turning to `N#Cc1ccc(-c2ccc(C(=O)N(Cc3ccccc3-c3ccccc3F)c3ccc(N4CCNCC4)cc3)o2)cc1`, in assay [1] (read-out: IC50), the IC50 was found to be 12 nM.

Take `N#Cc1ccc(-c2ccc(C(=O)N(Cc3ccc(-c4ccncc4)cc3)c3ccc(N4CCNCC4)cc3)o2)cc1`: the IC50 in assay [1] (read-out: IC50) came to 128 nM.

Consider `N#Cc1ccc(-c2ccc(C(=O)N(Cc3cccc(-c4ccncc4)c3)c3ccc(N4CCNCC4)cc3)o2)cc1`, for which the IC50 in assay [1] (read-out: IC50) is 110 nM.

As for `N#Cc1ccc(-c2ccc(C(=O)N(Cc3ccccc3-c3ccncc3)c3ccc(N4CCNCC4)cc3)o2)cc1`, in assay [1] (read-out: IC50), the IC50 was determined as 12 nM. For the same molecule, in assay [2], the midpoint of the response, the EC50, lay at 8400 nM.

In the case of `Cc1ccccc1-c1ccccc1CN(C(=O)c1ccc(-c2ccc(C#N)cc2)o1)c1ccc(N2CCNCC2)cc1`, in assay [1] (read-out: IC50), the IC50 came to 285 nM.

For `Cc1noc(C)c1-c1ccccc1CN(C(=O)c1ccc(-c2ccc(C#N)cc2)o1)c1ccc(N2CCNCC2)cc1`, the IC50 in assay [1] (read-out: IC50) is 21 nM. In assay [2], a half-maximal effect (EC50) was put at 1770 nM.

For the molecule `N#Cc1ccc(-c2ccc(C(=O)N(Cc3ccccc3-c3ccc(C#N)cc3)c3ccc(N4CCNCC4)cc3)o2)cc1`, in assay [1] (read-out: IC50), the IC50 was determined as 8 nM. In assay [2], a half-maximal effect (EC50) was put at 2950 nM.

Take `N#Cc1ccc(-c2ccc(C(=O)N(Cc3ccccc3-c3cccc(C#N)c3)c3ccc(N4CCNCC4)cc3)o2)cc1`: the IC50 in assay [1] (read-out: IC50) was 19 nM. The same molecule yielded an EC50 in assay [2] of 1590 nM.

For `COc1cccc(-c2ccccc2CN(C(=O)c2ccc(-c3ccc(C#N)cc3)o2)c2ccc(N3CCNCC3)cc2)c1`, the IC50 in assay [1] (read-out: IC50) is 12 nM.

`N#Cc1ccc(-c2ccc(C(=O)N(Cc3ccccc3-c3cccnc3)c3ccc(N4CCNCC4)cc3)o2)cc1`: the IC50 in assay [1] (read-out: IC50) was found to be 9 nM. The molecule also registered an EC50 in assay [2] of 1240 nM.

Regarding `N#Cc1ccc(-c2ccc(C(=O)N(Cc3ccccc3-c3ccccn3)c3ccc(N4CCNCC4)cc3)o2)cc1`, the IC50 in assay [1] (read-out: IC50) was determined as 14 nM. The same molecule displayed an EC50 in assay [2] of 2540 nM.

`N#Cc1ccc(-c2ccc(C(=O)N(Cc3ccccc3-c3cncnc3)c3ccc(N4CCNCC4)cc3)o2)cc1`: the IC50 in assay [1] (read-out: IC50) is 27 nM. In assay [2], this molecule registered an EC50 of 880 nM.

As to `COc1cncc(-c2ccccc2CN(C(=O)c2ccc(-c3ccc(C#N)cc3)o2)c2ccc(N3CCNCC3)cc2)c1`, in assay [1] (read-out: IC50), the IC50 turned out to be 20 nM. The EC50 in assay [2] worked out at 1800 nM.

Take `COc1ccncc1-c1ccccc1CN(C(=O)c1ccc(-c2ccc(C#N)cc2)o1)c1ccc(N2CCNCC2)cc1`: the IC50 in assay [1] (read-out: IC50) was 8 nM. Moreover, the EC50 in assay [2] was found to be 310 nM.

`COc1ccc(-c2ccccc2CN(C(=O)c2ccc(-c3ccc(C#N)cc3)o2)c2ccc(N3CCNCC3)cc2)cn1`: the IC50 in assay [1] (read-out: IC50) worked out at 43 nM.

For the molecule `COc1cc(-c2ccccc2CN(C(=O)c2ccc(-c3ccc(C#N)cc3)o2)c2ccc(N3CCNCC3)cc2)ccn1`, the IC50 in assay [1] (read-out: IC50) is 24 nM.

With `COc1ncc(-c2ccccc2CN(C(=O)c2ccc(-c3ccc(C#N)cc3)o2)c2ccc(N3CCNCC3)cc2)cn1`, the IC50 in assay [1] (read-out: IC50) was found to be 52 nM.

With `COc1ccccc1-c1ccccc1CN(C(=O)c1ccc(-c2ccc(C#N)cc2)o1)c1ccc(N2CCNCC2)cc1`, the IC50 in assay [1] (read-out: IC50) turned out to be 20 nM. In addition, in assay [2], a half-maximal effect (EC50) was put at 1960 nM.

For the molecule `COc1ccccc1-c1ncccc1CN(C(=O)c1ccc(-c2ccc(C#N)cc2)o1)c1ccc(N2CCNCC2)cc1`, the IC50 in assay [1] (read-out: IC50) is 12 nM. Also, the EC50 in assay [2] worked out at 734 nM.

In the case of `COc1ccncc1-c1ncccc1CN(C(=O)c1ccc(-c2ccc(C#N)cc2)o1)c1ccc(N2CCNCC2)cc1`, the IC50 in assay [1] (read-out: IC50) was determined as 9 nM. Further, in assay [2], the EC50 was found to be 1590 nM.

On to `N#Cc1ccc(-c2ccc(C(=O)N(Cc3cccnc3-c3cncnc3)c3ccc(N4CCNCC4)cc3)o2)cc1`, for which the IC50 in assay [1] (read-out: IC50) was determined as 100 nM.

For `N#Cc1ccc(-c2ccc(C(=O)N(Cc3ccccc3-c3ccccc3)c3ccc(N4CCNCC4)cc3)o2)cn1`, the IC50 in assay [1] (read-out: IC50) worked out at 258 nM.

Turning to `N#Cc1ccc(-c2ccc(C(=O)N(Cc3ccccc3-c3cccnc3)c3ccc(N4CCNCC4)cc3)o2)cn1`, the IC50 in assay [1] (read-out: IC50) was found to be 177 nM.
